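Tested at 5 concentrations; 48 h exposure; 96-well plates; endpoints linearly interpolated, else capped at highest concentration. TGI is the concentration that stops growth completely.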
Experiments:
Experiment in all cases: inhibition of tumour cell growth, NCI panel, 48 h
[1] = system: RXF-631 renal
[2] = system: SNB-78 CNS
[3] = system: HOP-18 NSCLC
[4] = system: XF 498 CNS

Measured: TGI

c1cncc(O[Si](Oc2cccnc2)(Oc2cccnc2)Oc2cccnc2)c1
> 100 µM: [1] | [2] | [3] | [4]

Reference: PubChem BioAssay (NCI)
